Data reported in paper PMC10099813, “Stafiba: A STAT5‐Selective Small‐Molecule Inhibitor” (Chembiochem, 2022).

What was measured:
STAT5a = target: T1, STAT5a (Homo sapiens, UniProt P42229); assay: Competitive fluorescence polarization (FP) binding assay, STAT5a SH2 domain; details: FP assay; for inhibition at 100 µM: the highest concentration tested, read-out: maximum inhibition at 100 µM (STAT5a); for Ki: Ki calculated from IC50 (n=3) via published equation; for Ki / IC50: 2 % DMSO (10 % DMSO for 10); for IC50: n=3 unless stated
T1 sequence (P42229 1-794): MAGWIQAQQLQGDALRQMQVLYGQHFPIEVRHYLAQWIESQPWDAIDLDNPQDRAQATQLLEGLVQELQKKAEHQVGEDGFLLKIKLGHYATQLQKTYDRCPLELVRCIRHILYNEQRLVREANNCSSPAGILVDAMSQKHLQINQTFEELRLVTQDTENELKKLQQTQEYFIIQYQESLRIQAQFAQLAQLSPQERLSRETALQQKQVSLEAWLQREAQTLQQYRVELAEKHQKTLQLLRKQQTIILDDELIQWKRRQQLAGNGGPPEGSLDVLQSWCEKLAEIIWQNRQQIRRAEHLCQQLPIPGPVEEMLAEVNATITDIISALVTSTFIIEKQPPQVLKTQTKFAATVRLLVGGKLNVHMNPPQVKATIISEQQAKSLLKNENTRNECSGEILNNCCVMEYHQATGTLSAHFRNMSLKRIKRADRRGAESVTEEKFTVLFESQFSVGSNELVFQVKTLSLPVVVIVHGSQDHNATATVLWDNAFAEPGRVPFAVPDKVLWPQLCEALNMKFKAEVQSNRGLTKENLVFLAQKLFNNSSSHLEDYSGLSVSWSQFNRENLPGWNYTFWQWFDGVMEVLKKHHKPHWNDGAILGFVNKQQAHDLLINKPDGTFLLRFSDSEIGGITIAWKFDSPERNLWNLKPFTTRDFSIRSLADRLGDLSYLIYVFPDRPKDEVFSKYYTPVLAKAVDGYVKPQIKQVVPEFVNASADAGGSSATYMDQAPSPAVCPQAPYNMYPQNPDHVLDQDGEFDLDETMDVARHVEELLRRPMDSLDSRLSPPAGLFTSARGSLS
Method: (§1) Fluorescence polarization assays: Competitive binding assays based on fluorescence polarization were carried out essentially as previously described.[[4a]] Unless stated otherwise, final concentrations of the buffer components were: 10 mM Tris (pH 8.0), 50 mM NaCl, 1 mM EDTA, 1 mM DTT, 0.1 % (v/v) Nonidet P‐40 substitute, and 2 % DMSO. Proteins were used at concentrations which reflect the Kd values of the interactions between the fluoropeptide and the protein preparations. Protein concentrations used for activity analysis of compound 5 were 91 nM for STAT1, 107 nM for STAT3, 28 nM for STAT4, 122 nM for STAT5a, 56 nM for STAT5b and 101 nM for STAT6. Protein concentrations used for activity analysis of AC‐4‐130 were 103 nM for STAT5a and 62 nM for STAT5b. […] Final concentration of all fluorescent‐labelled peptides was 10 nM. The following peptides were used in assays: 5‐carboxyfluorescein‐GpYDKPHVL for STAT1; 5‐carboxyfluorescein‐GpYLPQTV‐NH2 for STAT3; 5‐carboxyfluorescein‐GpYLPQNID for STAT4; 5‐carboxyfluorescein‐GpYLVLDKW for STAT5a/5b, and 5‐carboxyfluorescein‐GpYVPWQDLI for STAT6. Protein and test compounds were incubated for 1 h prior to addition of the fluorescein‐labeled peptide. Fluorescence polarization was measured after another 60 min using an Infinite F500 plate reader (Tecan). IC50 values were converted to Ki‐values using the published equation.[13]

STAT5b = target: T2, STAT5b (Homo sapiens, UniProt P51692); assay: Competitive fluorescence polarization (FP) binding assay, STAT5b SH2 domain; details: FP assay; for Ki: Ki calculated from IC50 (n=3) via published equation; for Ki / IC50: 2 % DMSO (10 % DMSO for 10); for IC50: n=3
T2 sequence (P51692 1-787): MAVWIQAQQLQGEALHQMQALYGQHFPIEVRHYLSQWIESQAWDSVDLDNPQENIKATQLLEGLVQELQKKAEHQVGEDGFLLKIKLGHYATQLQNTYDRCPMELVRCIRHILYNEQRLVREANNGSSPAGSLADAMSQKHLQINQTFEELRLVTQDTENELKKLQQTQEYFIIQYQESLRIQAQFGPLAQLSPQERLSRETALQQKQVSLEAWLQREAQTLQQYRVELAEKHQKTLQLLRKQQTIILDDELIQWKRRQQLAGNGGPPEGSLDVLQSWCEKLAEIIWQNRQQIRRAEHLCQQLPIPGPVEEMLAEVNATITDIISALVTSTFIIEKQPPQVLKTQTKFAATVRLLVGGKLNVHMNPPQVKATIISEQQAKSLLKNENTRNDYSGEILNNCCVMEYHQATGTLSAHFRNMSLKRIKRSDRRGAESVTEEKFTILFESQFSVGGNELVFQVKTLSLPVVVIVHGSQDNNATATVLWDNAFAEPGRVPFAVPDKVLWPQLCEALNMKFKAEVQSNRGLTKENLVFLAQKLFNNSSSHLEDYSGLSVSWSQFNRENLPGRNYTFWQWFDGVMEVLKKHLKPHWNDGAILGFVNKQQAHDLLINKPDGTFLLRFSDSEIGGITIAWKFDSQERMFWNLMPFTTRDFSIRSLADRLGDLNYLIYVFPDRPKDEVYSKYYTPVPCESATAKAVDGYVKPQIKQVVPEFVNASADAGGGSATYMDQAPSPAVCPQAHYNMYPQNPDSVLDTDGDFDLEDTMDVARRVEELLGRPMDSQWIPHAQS
Method: as §1

[1] = Solubility as observed during synthesis / stock preparation; assay type: physicochemical; details: remark on synthesis

`CC(=O)NCc1ccc(OP(=O)(O)O)cc1OP(=O)(O)O` [compound 2] gave an inhibition at 100 µM (STAT5a) of 50 ± 3%, a Ki (STAT5b) of 42.1 ± 1.6 µM and an IC50 (STAT5b) of 85.7 ± 3.2 µM.
For `O=P(O)(O)C(F)(F)c1cccc(C(F)(F)P(=O)(O)O)c1F` [compound 9], the Ki (STAT5a) was 15 ± 0.6 µM, the IC50 (STAT5a) was 30.7 ± 1.3 µM and the Ki (STAT5b) was 18.9 ± 1.5 µM. It also gave an IC50 (STAT5b) of 38.4 ± 3 µM.
With `O=C(COc1ccc(C(=O)Nc2ccc(Oc3ccccc3)cc2)cc1)NCc1cc(OP(=O)(O)O)cc(OP(=O)(O)O)c1` [compound 4] the Ki (STAT5a) was 2.5 ± 0.5 µM, the IC50 (STAT5a) was 5.2 ± 1 µM and the “increase of activity against STAT5a relative to resorcinol bisphosphate (1)” value (STAT5a; ratio of Ki values) was 9 fold. For the same compound, the Ki (STAT5b) was 0.9 ± 0.1 µM, the IC50 (STAT5b) was 1.9 ± 0.3 µM and the “increase of activity against STAT5b relative to resorcinol bisphosphate (1)” value (STAT5b; ratio of Ki values) was 23 fold. The “solubility of the final product” value [1] was “limited solubility”.
`CC(=O)NCc1cc(OP(=O)(O)O)cc(OP(=O)(O)O)c1` [compound 3] gave a Ki (STAT5a) of 36.4 ± 3.8 µM, an IC50 (STAT5a) of 73.8 ± 7.7 µM and a Ki (STAT5b) of 18.7 ± 0.8 µM. For the same compound, the IC50 (STAT5b) was 38.1 ± 1.6 µM.
In the case of `O=P(O)(O)Cc1cccc(CP(=O)(O)O)c1F` [compound 8], the inhibition at 100 µM (STAT5a) is reported as 12 ± 3% and the inhibition at 100 µM (STAT5b; 100 µM, read-out: maximum inhibition at 100 µM (STAT5b)) is reported as 14 ± 1%.
For `O=P(O)(O)Oc1ccc(F)c(OP(=O)(O)O)c1` [compound 6], the Ki (STAT5a) was 29.4 ± 0.6 µM, the IC50 (STAT5a) was 59.4 ± 1.2 µM and the Ki (STAT5b) was 27.4 ± 2.8 µM. It also gave an IC50 (STAT5b) of 55.8 ± 5.6 µM.
With `O=P(O)(O)Oc1cccc(OP(=O)(O)O)c1F` [compound 7] the Ki (STAT5a) was 10.8 ± 0.5 µM, the IC50 (STAT5a) was 21.8 ± 0.9 µM and the Ki (STAT5b) was 7.6 ± 0.4 µM. It also gave an IC50 (STAT5b) of 15.5 ± 0.8 µM.
Compound `O=P(O)(O)Oc1cccc(OP(=O)(O)O)c1` [compound 1, 1,3-Phenylene bis(dihydrogen phosphate)] has a Ki (STAT5a) of 23.3 ± 4.9 µM, an IC50 (STAT5a) of 47.2 ± 9.9 µM and a Ki (STAT5b) of 20.4 ± 0.7 µM. The IC50 (STAT5b) was 41.6 ± 1.4 µM.
